Data as given in patent publication US10624845B2 (The Procter & Gamble Company, priority 2015, dated 2020).

What was measured:
[1] = tested on: buccal tissue (EpiOral® tissues); assay: Permeability Enhancer Assay (Permeability Enhancer Test); settings: pH 5.0; reference […]10^−6 cm/s
Excerpt: The donor side was not sampled and donor concentration was not measured.

in vitro = settings: human
[2] = tested on: buccal tissue (EpiOral® tissues); settings: for Average Apparent Permeability Coefficient Papp: donor pH 9.0, receiver pH 7.4, co-dosed 100 μM (caffeine 50 μM), n=6

Row | SMILES | effect of the enhancer on the Papp of diphenhydramine versus reference Papp from the Permeability Test [1] | Average Apparent Permeability Coefficient Papp [2] | other results
1 | CCCCCCCCCCCCCCCC[n+]1ccccc1 [Cetylpyridinium chloride] | higher |  | 
2 | CCCCCCCCCC(=O)[O-].[Na+] [Sodium Caprate] | higher |  | 
3 | CCCCCCCCCCCCOS(=O)(=O)[O-].[Na+] [SDS, sodium dodecyl sulfate] | lower |  | 
4 | CC(C)NCC(O)COc1cccc2ccccc12 (stereo not drawn) [Propranolol] |  | 21.5 ± 4.66 10^−6 cm/s | Papp at 120 min, 100 μM (in vitro; pH 5): 1.45 ×10⁻⁶ cm/s; Papp at 120 min, 100 μM (in vitro; pH 7.4): 9.35 ×10⁻⁶ cm/s; Papp at 120 min, 100 μM (in vitro; pH 9): 21.5 ×10⁻⁶ cm/s
5 | Cn1c(=O)c2c(ncn2C)n(C)c1=O [Caffeine] |  | 33.3 ± 3.55 10^−6 cm/s | change of Papp at pH 9.0 compared to that at pH 5.0 and 7.4 ([2]; pH 9.0 vs pH 5.0 and 7.4): only moderately increased
